# According to patent US20110263487A1, “Plant Production and Delivery System for Recombinant Proteins as Protein-Flour or Protein-Oil Compositions” (University of Georgia Research Foundation, Inc., priority 2007, published 2011):
# Tested on: Fall Army Worm, Spodoptera frupperda
# Test: Larvae feeding on transgenic Arabidopsis plants, mortality
# Assay type: in vivo
# Settings: relative to control plants
# Description: The mortality of moth larvae species was assayed examining the feeding of the three genotypes of transgenic plants relative to each other and relative to wild-type plant controls. An initial result indicates extremely high expression levels of the B.t. and B.t.B expressed from the ACTIN 2 A2pt cassette can be achieved. […] Cry1Ac (plant line Cry1#31, Table 2). The mortality of Fall Army Worm, Spodoptera frupperda, which is 100-fold less sensitive to Cry1Ac, was assayed feeding on these plants.
substance,measurement,value
B.t. Cry1Ac: Bacillus thuringiensis toxin Cry1Ac expressed in transgenic Arabidopsis from A2pt::Cry1Ac (SEQ ID NO: 1),killing of the Fall Army Worm feeding on transgenic plants,weak killing activity
